Assay results: patent publication US9855310B2, “Coix seed oil containing 8 triglycerides, and pharmaceutical preparation and use thereof” (ZHEJIANG KANGLAITE GROUP CO., LTD., priority 2014, dated 2018)
Converted amounts (≈) assume the structure as drawn. Where a name gives a salt, the structure may show the parent alone. Marks after values point to notes of the source that are not given here. One block for each compound: values may come before it.

What was measured:
QGY human hepatoma = assay: Growth of QGY human hepatoma transplanted in nude mice; conditions: ip × 7qd
Description: A549 Human lung cancer cells cryopreserved in liquid nitrogen were recovered, and incubated in a 37 incubator under 5% CO2. After being subcultured, cells in a logarithmic growth stage were distributed with normal saline to be a cell suspension in a concentration of 1-2×10^7 cells/ml. The cell suspension was inoculated into BALB/C nude mice (SPF grade, 18-20 g, 6 weeks old, male) subcutaneously at right axillary. The tumor tissues were aseptically taken from the 2nd generation of xenograft model of A549 human lung cancer in a vigorous growth stage and cut into small uniform pieces in the size of 1-2 mm^3. The right axillary of each nude mouse was inoculated one piece subcutaneously via a trocar. When the inoculated tumor could be touched, the mice were randomly grouped and administered according to the experimental design program. All contacted feed, padding, cages and equipment, etc., should be autoclaved prior to use. The nude mice were fed in a laminar flow rack. Tumor sizes and animal weights were observed and tested dynamically. Mice in each group were sacrificed 3 weeks later or so, and tumors were surgically removed and weighed.
(§3) Q value of antitumor effect in drug combination was calculated according to Jin's formula: Q=Ea+b/(Ea+Eb−Ea×Eb) Wherein Ea+b=the tumor inhibition rate of drug combination, Ea or Eb=the tumor inhibition rate of drug A or drug B, respectively.
QGY human hepatoma cells cryopreserved in liquid nitrogen were recovered, and incubated in a 37 incubator under 5% CO2.

A549 human lung cancer = assay: Growth of A549 human lung cancer transplanted in nude mice; type: in vivo, BALB/C nude mice; conditions: ip × 7qd
Description: The injection of the invention (10 g/100 ml), Cisplatin (Qilu Pharmaceutical Co., Ltd), blank fat emulsion and normal saline

S180 sarcoma = S180 sarcoma transplanted in mice; type: in vivo, Kunmin mice; conditions: ip × 2(1, 3)
Description: The injection of the invention (10 g/100 ml), Cyclophosphamide (CTX), Mitoxantrone (DHAD), Mitomycin (MMC) and normal saline
Each mouse was inoculated with 0.2 ml of the suspension subcutaneously at the right axilla, and the mice were grouped randomly. The administration began from the next day according to the dosage program in Table 7. […] Weights of tumor were compared and inhibition rates were calculated for each group.

[1] = tested on: Bcap-37 human breast cancer; assay: Bcap-37 human breast cancer transplanted in nude mice; type: in vivo, BALB/C nude mice; conditions: 25 mg/kg, ip × 1
Description: The injection of the invention (10 g/100 ml), Docetaxel injection (Taxotere, 20 mg/vial) and normal saline
Bcap-37 human breast cancer: inoculated in BALB/C nude mice (SPF grade), 18-20 g, female
(§1) Tumor blocks of well-grown Bcap-37 human breast cancer were homogenized in normal saline to obtain cell suspensions in the concentration of 1-2×10^7 cells/ml. Each nude mouse was inoculated with 0.2 ml of the suspension at the right axilla subcutaneously, and the mice were grouped randomly. The administration began from the 7th day after the inoculation. 20 Days after the inoculation, the mice were sacrificed. Tumor blocks were taken out and weighed. Differences of tumor weight between each experimental group and the control group were compared, and tumor inhibition rates and Q values were calculated.

[2] = tested on: PANC-1 human pancreatic cancer; assay: PANC-1 human pancreatic cancer transplanted in nude mice; type: in vivo, BALB/C nude mice; conditions: 60 mg/kg, iv × 1
Description: as §3
Tumor blocks of well-grown PANC-1 human pancreatic cancer were inoculated subcutaneously in 4-week-old female BALB/C nude mice. The nude mice were grouped randomly and administered. One week after the end of the administration, the mice were sacrificed and dissected. Tumor blocks were taken out and weighed. Differences of tumor weight between each experimental group and the control group were compared and the tumor inhibition rates were calculated.

[3] = tested on: FC-3M human prostate cancer; assay: FC-3M human prostate cancer transplanted in nude mice; type: in vivo, BALB/C nude mice; conditions: iv × 1
Description: The injection of the invention (10 g/100 ml), Leuprolide acetate (Lupron) and normal saline
Tumor blocks of well-grown FC-3M human prostate cancer were homogenized in normal saline (1:4). Each nude mouse was inoculated with 0.2 ml of the suspension at the right axilla subcutaneously, and the mice were grouped randomly. The administration began from the next day. 21 Days after the inoculation, the mice were sacrificed. Tumor blocks were taken out and weighed. Differences of tumor weight between each experimental group and the control group were compared and the tumor inhibition rates were calculated.

[4] = tested on: Bcap-37 (human breast cancer cells); assay: Inhibition on human tumor cell lines in MTT method in vitro; type: cell-based; conditions: Bcap37
Excerpt: (§2) (1) Cell lines: PANC-1 (human pancreatic cancer cells), SKOV3 (human ovarian cancer cells), MCF-7 (human breast cancer cells), Bcap-37 (human breast cancer cells), SMMC-7721 (human hepatic cancer cells), HepG-2 (human hepatic cancer cells), A549 (human lung cancer cells) and H460 (human lung cancer cells), storaged and passaged maintainably in Research and Evaluation Center for Pharmacology, Shanghai Institute of Pharmaceutical Industry; The inhibition effects of samples on the above-mentioned cell lines were detected by using MTT method. The specific procedures were as follows: (1) Cell culture: (a) Storaged cells were taken out from the liquid nitrogen, thawed quickly in a 37 water bath, then aseptically transferred into 6 ml of cellular medium in a 10 ml centrifugal tube, and centrifuged at 1000 rpm for 5 min. The supernatant was discarded, then the precipitated cells were re-suspensed in 5-6 ml cellular media by pipetting and transferred into a flask in a 37 incubator for cell culture; (b) Next day, the flask was taken out from the incubator and the used medium was discarded, then the cells were incubated in 5-6 ml fresh medium in the 37 incubator; (c) On the third day, the flask was taken out from the incubator and the used medium was discarded, then 2-3 ml of PBS (pH7.4) was added into the flask with rocking for cleaning it and the used PBS was discarded. […] The flask was capped and placed in a 37 incubator for about 3 min, and the separation of cells from the flask wall was observed under the microscope. 2 ml of cellular medium was added and cells were separated completely from the flask wall by pipetting, then the cell suspension was transferred into 2 separate clean flasks, each containing 5-6 ml medium. The cell suspension was well-distributed by pipetting, then the flask was placed in a 37 incubator. (d) Step (c) was repeated every other day. In the whole cultivation process, adherent cells were not allowed to grow too dense and suspension cells were always maintained at a logarithmic growth stage. (2) Preparation of the sample and the control: A proper amount of sample of Coix seed oil (oil of Job's tears seed) was dissolved in DMSO to obtain a solution in a concentration of 10 mg/ml. […] The correspondingly diluted DMSO solutions, as controls, were added into the wells of the microplate. (4) Cells in a logarithmic growth stage were trypsinized and washed, then re-suspended in the medium containing 10% calf serum. The number of living cells was counted in Trypan blue dye exclusion method and cell suspensions were adjusted into a density of 2×10^5 cell/ml. (5) The cell-contained 96 well flat-bottom microplate was placed in a 37 incubator and cells were incubated under 5% CO2 for 48 h. (6) 20 μl of 5 mg/ml MTT solution was added into each well and cells were incubated continuously in the incubator for 3-4 h. (7) 100 μl of crystal dissolving solution was added into each well and cells were incubated continuously in the incubator overnight, so as to dissolve the resulted formazan crystals sufficiently. Then, the absorbance value was measured at 570 nm for each well. […] The calculation formula was as follows: (1−mean absorbance of experimental wells/mean absorbance of control wells)×100%

[5] = tested on: SMMC-7721 (human hepatic cancer cells); assay: as above; type: cell-based
Excerpt: as §2

[6] = tested on: HepG-2 (human hepatic cancer cells); assay: as above; type: cell-based; conditions: HepG2
Excerpt: as §2

[7] = tested on: H460 (human lung cancer cells); assay: as above; type: cell-based; conditions: NCI-H460
Excerpt: as §2

[8] = tested on: SKOV3 (human ovarian cancer cells); assay: as above; type: cell-based; conditions: SK-OV-3
Excerpt: as §2

[9] = tested on: A549 (human lung cancer cells); assay: as above; type: cell-based
Excerpt: as §2

[10] = tested on: MCF-7 (human breast cancer cells); assay: as above; type: cell-based; conditions: MCF7
Excerpt: as §2

[11] = tested on: PANC-1 (human pancreatic cancer cells); assay: as above; type: cell-based
Excerpt: as §2

[12] = tested on: MDA-MB-435 human breast cancer; assay: MDA-MB-435 human breast cancer transplanted in nude mice; type: in vivo, BALB/C nude mice; conditions: 50 mg/kg, ip × 1
Description: as §1, with “Each” for “Tumor blocks of well-grown Bcap-37 human breast cancer were homogenized in normal saline to obtain cell suspensions in the concentration of 1-2×10^7 cells/ml. Each”, “18” for “20”

LM-3 human hepatoma = LM-3 human hepatoma transplanted in nude mice; conditions: ip × 7qd
Description: When the inoculated tumor could be touched, the mice were randomly grouped and administered according to the experimental design program. All contacted feed, padding, cages and equipment, etc., should be autoclaved prior to use. The nude mice were fed in a laminar flow rack. Tumor sizes and animal weights were observed and tested dynamically. Mice in each group were sacrificed 3 weeks later or so, and tumors were surgically removed and weighed.
LM-3 human hepatoma cells cryopreserved in liquid nitrogen were recovered, and incubated in a 37 incubator under 5% CO2. Other steps were the same as mentioned in 2-B.

W256 cancer sarcoma = W256 cancer sarcoma transplanted in rats; type: in vivo, Wistar rats
Description: The injection of the invention (10 g/100 ml), Cyclophosphamide (CTX) and normal saline
W256 cancer sarcoma: inoculated in Wistar rats, 50-60 g, female
Ascitic fluid of rats with well-grown W256 cancer sarcoma was diluted with normal saline to obtain a cell suspension of about 1-2×10^7 cells/ml. Each rat was inoculated with 0.2 ml of the suspension at the right axilla subcutaneously. The rats were grouped randomly next day and began administration. Two weeks later, animals were sacrificed and dissected to take out the tumor block. Weights of tumor were compared between each experimental group and the control group and tumor inhibition rates were calculated.

Weight of animal start/end: end (QGY human hepatoma; 1 mg/kg): 24.5
Weight of animal start/end: start (QGY human hepatoma; 1 mg/kg): 21.5
Weight of animal start/end: end (QGY human hepatoma; 2 mg/kg): 23.2
SMILES: COc1cccc2c1C(=O)c1c(O)c3c(c(O)c1C2=O)C[C@@](O)(C(=O)CO)C[C@@H]3O[C@H]1C[C@H](N)[C@H](O)[C@H](C)O1 [Adriamycin]
Inhibition rate % (QGY human hepatoma; 1 mg/kg): 35.48%
Weight of tumor (g) x ± SD (QGY human hepatoma; 1 mg/kg): 0.742 ± 0.19 g
Inhibition rate % (QGY human hepatoma; 2 mg/kg): 68.87%
Weight of tumor (g) x ± SD (QGY human hepatoma; 2 mg/kg): 0.358 ± 0.12 g

SMILES: N.N.[Cl][Pt][Cl] [Cisplatin]
Inhibition rate % (A549 human lung cancer; 1 mg/kg): 41.07%
Weight of animal (g) start/end: end (A549 human lung cancer; 1 mg/kg): 24.5 g
Weight of animal (g) start/end: start (A549 human lung cancer; 1 mg/kg): 20.3 g
Weight of tumor (g) x ± SD (A549 human lung cancer; 1 mg/kg): 0.772 ± 0.15 g
Inhibition rate % (A549 human lung cancer; 2 mg/kg): 86.03%
Weight of animal (g) start/end: end (A549 human lung cancer; 2 mg/kg): 23.6 g
Weight of animal (g) start/end: start (A549 human lung cancer; 2 mg/kg): 20.3 g
Weight of tumor (g) x ± SD (A549 human lung cancer; 2 mg/kg): 0.183 ± 0.05 g

SMILES: O=C1c2c(O)ccc(O)c2C(=O)c2c(NCCNCCO)ccc(NCCNCCO)c21 [DHAD, Mitoxantrone]
Inhibition rate % (S180 sarcoma; 2 mg/kg): 51.0%
Weight of tumor (g) x ± SD (S180 sarcoma; 2 mg/kg): 0.77 ± 0.19 g

SMILES: CC(=O)O[C@@]12CO[C@@H]1C[C@H](O)[C@@]1(C)C(=O)[C@H](O)C3=C(C)[C@@H](OC(=O)[C@H](O)[C@@H](NC(=O)OC(C)(C)C)c4ccccc4)C[C@@](O)([C@@H](OC(=O)c4ccccc4)[C@H]21)C3(C)C [Docetaxel]
Inhibition rate % [1]: 56.80%
Weight of tumor (g) x ± SD [1]: 1.27 ± 0.88 g

SMILES: Nc1ccn([C@@H]2O[C@H](CO)[C@@H](O)C2(F)F)c(=O)n1 [Gemcitabine, gemcitabine hydrochloride]
Inhibition rate % [2]: 23.04%
Weight of tumor (g) x ± SD [2]: 0.1426 ± 0.078 g

SMILES: CCNC(=O)[C@@H]1CCCN1C(=O)[C@H](CCCNC(=N)N)NC(=O)[C@H](CC(C)C)NC(=O)[C@@H](CC(C)C)NC(=O)[C@H](Cc1ccc(O)cc1)NC(=O)[C@H](CO)NC(=O)[C@H](Cc1c[nH]c2ccccc12)NC(=O)[C@H](Cc1c[nH]cn1)NC(=O)[C@@H]1CCC(=O)N1 [Lupron, Leuprolide acetate]
Inhibition rate % ([3]; 0.75 ml/kg): 35.1%
Weight of tumor (g) x ± SD ([3]; 0.75 ml/kg): 0.98 ± 0.26 g
Inhibition rate % ([3]; 1.5 ml/kg): 47.68%
Weight of tumor (g) x ± SD ([3]; 1.5 ml/kg): 0.79 ± 0.16 g

SMILES: CO[C@@]12[C@H](COC(N)=O)C3=C(C(=O)C(C)=C(N)C3=O)N1C[C@@H]1N[C@@H]12 [MMC, Mitomycin]
Inhibition rate % (S180 sarcoma; 1.5 mg/kg): 39.5%
Weight of tumor (g) x ± SD (S180 sarcoma; 1.5 mg/kg): 0.95 ± 0.16 g

IC50 [4]: 0.28 µg/mL (≈ 0.328 µM)
IC50 [5]: 0.41 µg/mL (≈ 0.48 µM)
IC50 [6]: 0.45 µg/mL (≈ 0.527 µM)
IC50 [7]: 0.49 µg/mL (≈ 0.574 µM)
IC50 [8]: 0.22 µg/mL (≈ 0.258 µM)
IC50 [9]: 0.46 µg/mL (≈ 0.539 µM)
IC50 [10]: 0.18 µg/mL (≈ 0.211 µM)
IC50 [11]: 0.44 µg/mL (≈ 0.515 µM)
SMILES: CC(=O)O[C@H]1C(=O)[C@@]2(C)[C@H]([C@H](OC(=O)c3ccccc3)[C@]3(O)C[C@H](OC(=O)[C@H](O)[C@@H](NC(=O)c4ccccc4)c4ccccc4)C(C)=C1C3(C)C)[C@]1(OC(C)=O)CO[C@@H]1C[C@@H]2O [Taxol, Paclitaxel]
Inhibition rate % [12]: 62.87%

SMILES: O=P1(N(CCCl)CCCl)NCCCO1 (centres unmarked) [cyclophosphamide, Cyclophosphamide]
Inhibition rate % (LM-3 human hepatoma; 15 mg/kg): 27.21%
Weight of animal start/end: end (LM-3 human hepatoma; 15 mg/kg): 25.1
Weight of animal start/end: start (LM-3 human hepatoma; 15 mg/kg): 20.6
Weight of tumor (g) x ± SD (LM-3 human hepatoma; 15 mg/kg): 1.110 ± 0.11 g
Inhibition rate % (LM-3 human hepatoma; 30 mg/kg): 84.13%
Weight of animal start/end: end (LM-3 human hepatoma; 30 mg/kg): 25.6
Weight of animal start/end: start (LM-3 human hepatoma; 30 mg/kg): 20.4
Weight of tumor (g) x ± SD (LM-3 human hepatoma; 30 mg/kg): 0.242 ± 0.11 g
Weight of tumor (g) x ± SD (W256 cancer sarcoma; 10 mg/kg, iv × 2(3, 5)): 2.07 ± 1.11 g
Inhibition rate % (W256 cancer sarcoma; 10 mg/kg, iv × 2(3, 5), listed as CTX): 38.6%
Inhibition rate % (W256 cancer sarcoma; 30 mg/kg, iv × 7): 88.1** %
Weight of tumor (g) x ± SD (W256 cancer sarcoma; 30 mg/kg, iv × 7): 0.40 ± 0.15 g
Weight of tumor (g) x ± SD (S180 sarcoma; 30 mg/kg): 0.95 ± 0.22 g
Inhibition rate % (S180 sarcoma; 30 mg/kg, listed as CTX): 39.5%
